{
  "source": "paper PMC9598926",
  "about": "“Design and Synthesis of (Z)-5-(Substituted benzylidene)-3-cyclohexyl-2-thioxothiazolidin-4-one Analogues as Anti-Tyrosinase and Antioxidant Compounds: In Vitro and In Silico Insights” (Antioxidants, 2022)",
  "type_in_all_cases": "cell-based, murine",
  "key": {"[1]": {"test_system": "MITF", "experiment": "Western blot of nuclear MITF in α–MSH/IBMX stimulated B16F10 cells", "details": "5, 10, 20 µM", "method": "2.15. Extraction of Cytosolic and Nuclear Proteins from Cells\nWestern blotting was used to determine tyrosinase and MITF protein levels. Briefly, B16F10 cells were seeded in 60 mm culture dishes in the presence or absence of α–MSH (1 µM) plus IBMX (200 µM) with or without analog 3 (5, 10, and 20 µM for final concentrations) for 24 h, washed twice with ice-cold PBS and centrifuged for 10 min at 12,000× g. Cell pellets were suspended in 10 mM Tris (pH 8.0) containing 0.1% NP-40, 1 mM DTT, 1.5 mM MgCl2, 1 mM PMSF, and protease inhibitors (GenDEPOT, Barker, TX, USA), incubated on ice for 15 min, and centrifuged for 10 min at 12,000× g at 4 °C. Supernatants were used as cytosolic fractions. […] The protein concentrations were determined using a bicinchoninic acid (BCA)™ assay kit (Pierce, Rockford, IL, USA). […]\nLysed protein samples from cells were boiled for 10 min in sample-loading buffer (0.1% bromophenol blue, 25% glycerol, 60 mM Tris-HCl (pH 6.8), 2% SDS, and 0.5% β-mercaptoethanol) at a volume ratio of 1:4. […] Immunoreactive proteins were detected using the enhanced chemiluminescence (ECL) detection reagent in the SuperSignal® West Pico Chemiluminescent Substrate kit (Advansta, San Jose, CA, USA). Western blot bands were visualized using a Davinch-Chemi imager™ (Davinch-K, Seoul, Korea), and quantification was conducted by densitometric analysis using CS analyzer software ver. […]"}, "[2]": {"test_system": "TRP-1", "experiment": "RT-qPCR of TRP-1 mRNA in α–MSH/IBMX stimulated B16F10 cells", "method": "2.17. RNA Extraction and Quantitative Real Time-Polymerase Chain Reaction (RT-qPCR)\nB16F10 cells were extracted using GeneAll RiboEx Total RNA extraction reagent (GeneAll Biotechnology, Seoul, Korea) and transferred to tubes, added with chloroform (0.1 mL), shaken vigorously for 30 sec, and centrifuged for 15 min at 12,000× g. Aqueous phases were transferred to fresh tubes, and equal volumes of isopropanol were added. Samples were then incubated at 4 °C for 10 min and centrifuged for 15 min at 12,000× g at 4 °C. Supernatants were discarded, and RNA pellets were washed once with 0.8 mL of 70% ethanol and by vortexing briefly and centrifuged for 5 min at 7500× g at 4 °C. Pellets were dried at 56 °C for 10–15 min and dissolved in 30 µL of diethyl pyrocarbonate (DEPC)-treated water. The levels of RNA were determined by a Nanodrop spectrophotometer (NANO-200, Allsheng, Hangzhou, China). Complementary DNA (cDNA) was synthesized from total RNA (2 µg) using SuPrime Script RT Premix (with random hexamer) cDNA Synthesis Kit (GeNet Bio, Daejeon, Korea). […]\nTo further investigate the anti-melanogenesis mechanism of analog 3, we examined its effect on the expressions of melanogenesis-associated genes and levels of melanogenesis-associated proteins in B16F10 cells. […] Nuclear levels of MITF protein were measured by Western blotting in α–MSH/IBMX-stimulated B16F10 cells. […]"}, "[3]": {"test_system": "B16F10 cells", "experiment": "Melanin content analysis in α–MSH plus IBMX stimulated B16F10 cells", "method": "2.10. Melanin Content Analysis Melanin content assays were performed to determine the effects of analog 3 on cellular melanin formation, as previously described with minor modification. […] Briefly, cultured B16F10 cells were seeded in 6-well culture plates at 1 × 10^4 cells/well and incubated for 12 h under culture conditions to allow them to adhere to well bottoms. […] Cells were then washed twice with PBS and detached from wells by incubation with Trypsin/EDTA. After centrifugation, detached cell pellets were dissolved in 1N–NaOH solution (100 µL), incubated for 1 h at 60 °C, and mixed to solubilize melanin released by cells. The ability of analog 3 to inhibit melanin production was determined by measuring well optical densities (ODs) at 405 nm using a microplate reader (VersaMax®, Molecular Devices, Sunnyvale, CA, USA). Melanin contents were calculated by dividing the ODs of samples by the control OD. Experiments were conducted independently 3 times. […] Thus, B16F10 cells were treated with analog 3 (0, 5, 10, or 20 µM) for 1 h and then stimulated with α–MSH (1 µM) plus IBMX (200 µM) for 72 h. Melanin contents were assessed by measuring optical densities at 405 nm."}},
  "data": [
    {"smiles": "O=C1/C(=C/c2ccc(O)cc2O)SC(=S)N1C1CCCCC1", "note": "[Analog 3, (Z)-3-Cyclohexyl-5-(2,4-dihydroxybenzylidene)-2-thioxothiazolidin-4-one]", "values": [
      {"measurement": "effect on α–MSH/IBMX-induced increases in MITF levels (nuclear protein)", "setting": "[1]", "result": "significantly and concentration-dependently suppressed"},
      {"measurement": "effect on expression of TRP-1 (mRNA)", "setting": "[2]; α–MSH/IBMX stimulated", "result": "significantly and concentration-dependently decreased"},
      {"measurement": "TRP-1 gene expression", "setting": "[2]; α–MSH/IBMX stimulated (2.2-fold), 5 µM", "result": 1.3, "unit": "fold"},
      {"measurement": "effect on α–MSH/IBMX-induced melanin contents at 5 µM", "setting": "[3]; 5 µM, compared with kojic acid 20 µM", "result": "greater effect than kojic acid at 20 µM"},
      {"measurement": "effect on α–MSH/IBMX-induced melanin contents at 20 µM", "setting": "[3]; 20 µM, 72 h", "result": "to the non-treated control level"},
      {"measurement": "effect on α–MSH/IBMX-induced melanin content increases", "setting": "[3]; 5, 10, 20 µM, 72 h", "result": "significantly and dose-dependently reduced"}
    ]}
  ]
}
